Measured values as given in PubChem BioAssay (NCI).
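A five-concentration, 48-hour dose response in 96-well plates underlies each endpoint, interpolated linearly between surrounding concentrations. TGI is the concentration that stops growth completely.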

Experiments:
Experiment in all cases: inhibition of tumour cell growth, NCI panel, 48 h
A498 renal = system: A498 renal
SF-539 CNS = system: SF-539 CNS
TK-10 renal = system: TK-10 renal
IGROV1 ovarian = system: IGROV1 ovarian
T-47D breast = system: T-47D breast
PC-3 prostate = system: PC-3 prostate
NCI-H226 lung = system: NCI-H226 lung
HOP-92 NSCLC = system: HOP-92 NSCLC
NCI-H23 lung = system: NCI-H23 lung
SF-295 CNS = system: SF-295 CNS
M14 melanoma = system: M14 melanoma
MDA-N = system: MDA-N

| Structure (SMILES) | TGI (A498 renal) | TGI (SF-539 CNS) | TGI (TK-10 renal) | TGI (IGROV1 ovarian) | TGI (T-47D breast) | TGI (PC-3 prostate) | TGI (NCI-H226 lung) | TGI (HOP-92 NSCLC) | TGI (NCI-H23 lung) | TGI (SF-295 CNS) | TGI (M14 melanoma) | TGI (MDA-N) |
| --- | --- | --- | --- | --- | --- | --- | --- | --- | --- | --- | --- | --- |
| C/C(=N\Nc1nc2ccccc2o1)c1ccncn1 | 10.7 µM | > 100 µM | > 63.4 µM | 30.9 µM | 23.2 µM | 36.6 µM | > 100 µM | 6.05 µM | > 47.7 µM | > 100 µM |  |  |
| S=C(Nc1ccccc1)N1N=C2c3ccccc3CC[C@H]2[C@@H]1c1ccccc1 | > 100 µM | > 100 µM | > 100 µM | > 100 µM |  |  | > 100 µM |  | > 100 µM |  | > 100 µM |  |
| CCCCP(CCCC)(CCCC)=C(C(=O)OC)C(C(=O)OC)=C1SC(C(=O)OC)=C(C(=O)OC)S1 |  |  | > 100 µM | 23.8 µM | 43.7 µM | 51 µM | 45 µM |  | 45.4 µM | 36.3 µM | 30.2 µM |  |
| CCN(CC)c1nc(N(C)C)c2cc(OC)ccc2n1 | > 100 µM | 55.5 µM | > 100 µM | > 100 µM |  | > 100 µM | 60.1 µM | > 100 µM | > 100 µM | > 100 µM | > 100 µM | > 100 µM |
| N#CC(c1cc(Cl)ncn1)c1nc2ccccc2s1 (configuration not stated) | 68.6 µM | 50.5 µM | > 100 µM | 22 µM | > 100 µM |  | > 100 µM | 11.1 µM | 19.5 µM | 43.7 µM | 33.6 µM | 24.1 µM |
| N#Cc1c2nc3ccccc3nc2n2ccc3ccccc3c12 |  | > 100 µM | > 100 µM | > 100 µM |  |  | > 100 µM | > 100 µM | > 100 µM | > 100 µM | > 100 µM |  |
| CC(=O)NC(CCCCNC(=O)N(C)N=O)C(=O)NCc1ccccc1 (configuration not stated) | > 100 µM | > 100 µM | > 100 µM | > 100 µM |  |  | > 100 µM | > 100 µM | > 100 µM | > 100 µM | > 100 µM |  |
| Cc1cc(-c2ccccc2)cc2[n+]1CC=C2 |  | > 100 µM | > 100 µM |  |  |  | > 100 µM | 94.8 µM | > 100 µM | > 100 µM | > 100 µM |  |
| COc1ccc(-c2nnc(CCCCCCCCc3nnc(-c4ccc(OC)cc4)o3)o2)cc1 | > 100 µM | > 100 µM | > 100 µM | > 100 µM |  | > 100 µM | > 100 µM | > 100 µM | > 100 µM | > 100 µM | > 100 µM | > 100 µM |
| COc1ccc([C@@H]2CC(=O)NCCCCNCCCN2)cc1 | > 100 µM | > 100 µM | > 100 µM | > 100 µM |  |  | > 100 µM | > 100 µM | > 100 µM | > 100 µM | > 100 µM |  |
| Cc1nc2c(ncn2CCO)c(=O)[nH]1 | > 100 µM | > 100 µM | > 100 µM | > 100 µM | > 100 µM | > 100 µM | > 100 µM |  | > 100 µM | > 100 µM | > 100 µM | > 100 µM |
